Measurements as given in the METLIN SMRT retention time set (Domingo-Almenara et al. 2019).

Assay: gradient 5% acetonitrile 3 min, to 50% in 2 min, to 85% in 15 min, held 3 min, 100 µL/min
Details: column: Zorbax Extend-C18 2.1 x 50 mm; eluents: water / acetonitrile, 0.1% formic acid
Method in brief: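 Pure standards were run in mixtures of ~100 molecules by HPLC coupled to a quadrupole time-of-flight mass spectrometer. The column was a Zorbax Extend-C18 (2.1 × 50 mm, 1.8 μm) at 100 μL/min, with water and acetonitrile each containing 0.1% formic acid, in positive and negative ionization mode. Dead and dwell volumes were 40 μL and 900 μL. Retention time was taken from computationally picked adduct peaks, each manually inspected, with data collected over 3 months.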

`Cc1nc(NC(=O)CCn2cnc3ccccc3c2=O)sc1C(=O)N(C)C` gave an RP-LC retention time of 589 s.
In the case of `O=C([C@@H]1C[C@H](F)CN1S(=O)(=O)c1ccc(F)cc1F)N1CCOCC1`, the RP-LC retention time is reported as 692 s.
With `CCCn1cc(CCNS(=O)(=O)Cc2cc(C)ccc2C)c2cccnc21` the RP-LC retention time was 946 s.
Molecule `COc1cc2ncnc(Nc3cccc(Br)c3)c2cc1OC` has an RP-LC retention time of 771 s.
`Cc1onc(-c2ccccc2Cl)c1C(=O)NC1C(=O)N2C1SC(C)(C)C2C(=O)O` (centres undefined) showed an RP-LC retention time of 815 s.
`CNC(=O)C1CCCN(c2nc3ncn(CC(=O)Nc4ccccc4C(=O)OC)c(=O)c3s2)C1` (centres undefined) gave an RP-LC retention time of 649 s.
With `O=C(CN1C(=O)c2ccccc2C1=O)NCC1(c2cccs2)CCCCC1` the RP-LC retention time was 936 s.
In the case of `OC(COCCOc1c(F)cc(Br)cc1F)CSc1ccccn1` (centres undefined), the RP-LC retention time is reported as 934 s.
`CCS(=O)(=O)N1CCCc2cc(C(=O)NCc3ccc4c(c3)OCO4)ccc21` gave an RP-LC retention time of 832 s.
`COc1ccc(NC(=O)N2CCC(Cc3nc4cccnc4n3C(C)C)C2)c(OC)c1` (centres undefined) gave an RP-LC retention time of 626 s.
Molecule `CCOC(=O)c1cnc(SCC(=O)N2CCC(C(N)=O)CC2)nc1N` has an RP-LC retention time of 602 s.
`CCc1nnc2sc(-c3cc(C)nc4ccc(Br)cc34)nn12` showed an RP-LC retention time of 892 s.
`Cc1cccc(OCc2nc(C)c(C(=O)Nc3nc(-c4ccc(C)c(C)c4)cs3)s2)c1` showed an RP-LC retention time of 1410 s.
`CCNC(=O)Nc1ccc2c(c1)CN(Cc1cn(C(C)C)c3ccc(OC)cc13)CCO2` gave an RP-LC retention time of 726 s.
Work on `COc1ccc(CNC(=O)c2cn(C)nc2S(=O)(=O)N2CCSCC2)cc1` yielded an RP-LC retention time of 818 s.
Work on `CC(C)n1cnc(S(=O)(=O)N2CCCC(C(=O)Nc3cccc4c3CCCC4)C2)c1` (centres undefined) yielded an RP-LC retention time of 865 s.
`Cc1nnc(N2CCCC(C(=O)NCCCN3CCCCCC3)C2)c2nn(-c3ccccc3)c(C)c12` (centres undefined) gave an RP-LC retention time of 586 s.
With `O=C(NCc1ccco1)c1ncoc1-c1ccccc1C(=O)N1CCCC1` the RP-LC retention time was 711 s.
Work on `Cc1nc(CC(=O)NC(C)c2ccc(F)cc2)sc1C(=O)NC1CC1` (centres undefined) yielded an RP-LC retention time of 683 s.
`CCOc1ccc(NC(=O)N2CCC(c3cc(N)on3)CC2)cc1` gave an RP-LC retention time of 690 s.
Molecule `CC(C)CNC(=O)N(C)Cc1nc2cc(C(=O)NC(C)C)ccc2n1C` has an RP-LC retention time of 593 s.
For `Cc1ccc(Cn2c(CCCC(=O)N3CCN(c4ncccn4)CC3)nc3cccnc32)cc1`, the RP-LC retention time was 744 s.
In the case of `Cc1c(Cl)cccc1NC(=O)C(C)n1cnc2nc3c(cc2c1=O)CCCC3` (centres undefined), the RP-LC retention time is reported as 805 s.
`Cn1cnc2ccc(-c3noc(Cc4ccccc4Cl)n3)cc21` showed an RP-LC retention time of 738 s.
In the case of `COc1cccc(-c2nc(C3CCN(C(=O)c4cc5ccccc5[nH]4)CC3)no2)c1`, the RP-LC retention time is reported as 1040 s.
In the case of `O=C1NC(C(=O)Nc2cccc(Cl)c2)Cn2cccc21` (centres undefined), the RP-LC retention time is reported as 721 s.
Work on `Cc1csc(NC(=O)Cn2ccc3ccc(-c4nnc(C)o4)cc32)n1` yielded an RP-LC retention time of 716 s.
With `Cc1ccc(S(=O)(=O)N2CCC3(CC2)NCCN=C3NCc2ccccc2Cl)cc1C` the RP-LC retention time was 768 s.
Molecule `CCCN1CN=C(Nc2nc(C)c3cccc(OC)c3n2)NC1` has an RP-LC retention time of 644 s.
Work on `COC(=O)c1sc2ccccc2c1NC(=O)c1cccc(OC)c1OC` yielded an RP-LC retention time of 1020 s.
In the case of `Cc1cccc(-c2noc(-c3ccc(N4CCN(c5ccccc5F)CC4)nc3)n2)c1`, the RP-LC retention time is reported as 613 s.
With `Cc1cc(N2CCN(S(=O)(=O)c3ccc4cccc5c4c3CC5)CC2)nc(NC2CCCCC2)n1` the RP-LC retention time was 955 s.
Work on `COCCNc1c(-c2cccc(F)c2)nc2sc(C(=O)NC(C)C)c(C)n12` yielded an RP-LC retention time of 835 s.
For `Clc1cccc(-c2nc(-c3ccc4c(c3)ncn4CCN3CCOCC3)no2)c1`, the RP-LC retention time was 676 s.
With `Cc1ccc(CSc2nc(CC(=O)N3CCC(C(N)=O)CC3)cs2)cc1` the RP-LC retention time was 680 s.
In the case of `Cc1ccc(S(=O)(=O)N2CCC(CCC(=O)NC3CCS(=O)(=O)C3)CC2)cc1` (centres undefined), the RP-LC retention time is reported as 740 s.
For `Cc1nc(C)c(-c2ccc(=O)[nH]n2)s1`, the RP-LC retention time was 558 s.
Work on `Cc1ccc(C)c(NC(=O)Cn2ncc3c(c2=O)N(CC2CC2)C(=O)CS3)c1` yielded an RP-LC retention time of 812 s.
`CC1Cc2ccccc2N1C(=O)c1ccc(Cl)cc1` (centres undefined) showed an RP-LC retention time of 972 s.
Work on `CC(C)Cn1c(=O)c(C(=O)NCCc2ccccn2)nc2cccnc21` yielded an RP-LC retention time of 604 s.
`O=C(c1cccs1)N1CCC(Cn2c(C(F)(F)F)nc3ccccc32)CC1` showed an RP-LC retention time of 819 s.
Molecule `O=C(NCCn1ncc2c(=O)n(Cc3ccccc3F)cnc21)c1ccc2c(c1)OCO2` has an RP-LC retention time of 678 s.
For `O=C(NCc1cccnc1)C1c2ccccc2C(=O)N1CCc1ccc(Cl)cc1` (centres undefined), the RP-LC retention time was 668 s.
In the case of `O=C(NCc1ccco1)C1CCN(c2nccnc2Sc2ccccc2)CC1`, the RP-LC retention time is reported as 883 s.
`CCOC(=O)Cc1c(C)nc2c(-c3cccc(Br)c3)cnn2c1C` gave an RP-LC retention time of 1250 s.
`O=C(C1=CN(c2cccc(Br)c2)c2ccccc2S1(=O)=O)N1CCOCC1` gave an RP-LC retention time of 788 s.
Molecule `CN1C(=O)C(C)(C(=O)NCc2ccc(Br)cc2)Oc2cccnc21` (centres undefined) has an RP-LC retention time of 837 s.
Work on `CN(CCc1noc(-c2ccc(F)cc2)n1)C(=O)Nc1ccccc1F` yielded an RP-LC retention time of 882 s.
`CCc1cccc(NC(=O)Cn2c(C)nc3onc(C)c3c2=O)c1` showed an RP-LC retention time of 861 s.
`CCN1CCN(c2cc(C(=O)O)c3cc(NS(=O)(=O)c4cc(F)ccc4C)ccc3n2)CC1` gave an RP-LC retention time of 607 s.
With `CCOc1ccc(NC(=O)CN2C(=O)C3CCCCN3c3ccc(S(=O)(=O)N(C)C)cc32)cc1` (centres undefined) the RP-LC retention time was 945 s.
`Cc1nc(CC(=O)Nc2ccc(F)cc2Cl)sc1C(=O)NC1CC1` gave an RP-LC retention time of 740 s.
`COc1ccccc1-c1nc(Cn2nnc(-c3nc(-c4ccccn4)no3)c2C)c(C)o1` gave an RP-LC retention time of 827 s.
With `CCCS(=O)(=O)N1CC(N(C)Cc2cccnc2)C1` the RP-LC retention time was 559 s.
Work on `CCNC(=O)c1c2c(nc3ccccc13)CCC2` yielded an RP-LC retention time of 573 s.
In the case of `Cc1cc(C(=O)NCC23CCCC=C2N(CC2CC2)C(=O)CC3)n(C)n1` (centres undefined), the RP-LC retention time is reported as 800 s.
Work on `Cc1ccnc(OCC(=O)NC(C)C)n1` yielded an RP-LC retention time of 586 s.
Molecule `Cc1ccc2nc(Nc3nc(C)cc(C(F)(F)F)n3)nc(C)c2c1` has an RP-LC retention time of 713 s.
Molecule `O=C(NCCOc1ccccc1)Nc1ccc(OC(F)(F)F)cc1` has an RP-LC retention time of 910 s.
Molecule `Cc1ccc(S(=O)(=O)NCCSc2ncccn2)cc1` has an RP-LC retention time of 727 s.
For `COc1ccc(Cl)cc1NC(=O)c1cc(C)n2nc(-c3ccco3)cc2n1`, the RP-LC retention time was 1300 s.
For `CCOC(=O)c1nc(Nc2ccc(F)cc2Cl)c2ccccc2n1`, the RP-LC retention time was 890 s.
`O=C(NCc1ccc(F)cc1Cl)c1cn(-c2ccc(NC(=O)C3CC3)cn2)cn1` showed an RP-LC retention time of 814 s.
With `Oc1c(Cl)cc(Cl)c2cccnc12` the RP-LC retention time was 1020 s.
`COc1cccc(N2C(=O)C3N=NN(Cc4nc(-c5ccc(C)cc5)no4)C3C2=O)c1` (centres undefined) showed an RP-LC retention time of 990 s.
`CN1C(=O)[C@H]2CN(Cc3ccccc3C#N)C[C@H]2C1=O` gave an RP-LC retention time of 650 s.
`CCc1ccc(NC(=O)C2CCN(S(=O)(=O)c3ccc4c(c3)NC(=O)C(CC)O4)CC2)cc1` (centres undefined) showed an RP-LC retention time of 963 s.
With `CCc1ccc(CNC(=O)C2Cc3cc(S(=O)(=O)N4CCCCC4)ccc3N2C(C)=O)cc1` (centres undefined) the RP-LC retention time was 983 s.
In the case of `COC(=O)c1ccc(NC(=O)CN2CCc3[nH]c4c(OC)ccc(Cl)c4c(=O)c3C2)cc1`, the RP-LC retention time is reported as 614 s.
With `COc1ccc(CNC(=O)Cn2nc3c(N4CCSCC4)nccn3c2=O)cc1` the RP-LC retention time was 762 s.
For `O=C(c1ccoc1)N1CCN(S(=O)(=O)c2cc(-c3noc(C4CCC4)n3)cs2)CC1`, the RP-LC retention time was 943 s.
With `Fc1ccc(-c2noc3ncnc(N4CCN(c5ccccn5)CC4)c23)cc1` the RP-LC retention time was 660 s.
`CCCNS(=O)(=O)c1cc(-c2[nH]ncc2C(=O)N(C)C)oc1C` showed an RP-LC retention time of 608 s.
Work on `O=C(NCC1CCCO1)C1CCN(S(=O)(=O)c2cc(-c3noc(C4CCC4)n3)cs2)CC1` (centres undefined) yielded an RP-LC retention time of 858 s.
With `COCCN1C(=O)c2ccccc2C(C(=O)NCc2ccccc2F)C12CCCCC2` (centres undefined) the RP-LC retention time was 877 s.
Molecule `O=C(Cn1c(CN2CCCCCC2)nc2ccccc21)N1CCCCCC1` has an RP-LC retention time of 678 s.
`CCCN(CC1CCOC1)C(=O)c1ccccc1Br` (centres undefined) gave an RP-LC retention time of 801 s.
For `CC(=O)Nc1ccc(NC(=O)C2CCCN(S(=O)(=O)c3cc(-c4noc(C)n4)cs3)C2)cc1` (centres undefined), the RP-LC retention time was 744 s.
In the case of `COCCN1CCn2cc(S(=O)(=O)Nc3ccc(F)c(F)c3)cc2C1=O`, the RP-LC retention time is reported as 733 s.
`Cc1ccc(C)c(S(=O)(=O)NCc2ccc(C(=O)N3CCCCC3C)cc2)c1` (centres undefined) gave an RP-LC retention time of 961 s.
With `CCOC(=O)COc1cc(-c2ccc(F)cc2)nc2ccc(NC(=O)c3ccco3)cc12` the RP-LC retention time was 798 s.
For `O=C(C1CCN(c2cncnc2N2CCCC2)CC1)N1CCN(c2ccccn2)CC1`, the RP-LC retention time was 552 s.
`CCOC(=O)c1[nH]c(C)c(CCC(=O)N2CCC(C(=O)NCc3ccc(OC)cc3OC)CC2)c1C` gave an RP-LC retention time of 799 s.
`Clc1ccccc1C1Cn2cnc(-c3nc(-c4ccncc4)no3)c2CO1` (centres undefined) showed an RP-LC retention time of 915 s.
Work on `CCCCCOc1ccc(C(=O)CCNC(Cc2c[nH]c3ccccc23)C(=O)O)cc1` (centres undefined) yielded an RP-LC retention time of 787 s.
Molecule `CCC(=O)N1c2ccc(S(=O)(=O)N3CCCCC3)cc2CC1C(=O)NCc1ccccc1C` (centres undefined) has an RP-LC retention time of 916 s.
In the case of `CCc1cc(=O)n(CC(=O)N(CC)c2ccccc2)c(N)n1`, the RP-LC retention time is reported as 628 s.
In the case of `Cc1ccc(C2Cn3nnc(C(=O)N4CCC(C(=O)NC5CC5)CC4)c3CO2)cc1` (centres undefined), the RP-LC retention time is reported as 733 s.
`O=C([C@@H]1C[C@H](F)CN1S(=O)(=O)c1ccc(F)cc1)N1CCOCC1` gave an RP-LC retention time of 664 s.
